Experimental data taken from patent US9302988B2, “Fluoromethyl-substituted pyrrole carboxamides” (GRÜNENTHAL GMBH, priority 2012, dated 2016).

target: T1, Human CaV2.2 channels (Homo sapiens, UniProt Q00975); experiment: Fluorescent assay for CaV2.2 channels using potassium depolarization to induce channel opening (FLIPR, Fluo-4); type: cell-based; details: 3 μM test compound, 30 mM KCl, HEK293 cells stably expressing human CaV2.2; read-out: %-Inhib (CaV2.2) @3 μM @30 mM KCl
T1 construct: expressed in transfected cells
T1 sequence (Q00975 whole entry): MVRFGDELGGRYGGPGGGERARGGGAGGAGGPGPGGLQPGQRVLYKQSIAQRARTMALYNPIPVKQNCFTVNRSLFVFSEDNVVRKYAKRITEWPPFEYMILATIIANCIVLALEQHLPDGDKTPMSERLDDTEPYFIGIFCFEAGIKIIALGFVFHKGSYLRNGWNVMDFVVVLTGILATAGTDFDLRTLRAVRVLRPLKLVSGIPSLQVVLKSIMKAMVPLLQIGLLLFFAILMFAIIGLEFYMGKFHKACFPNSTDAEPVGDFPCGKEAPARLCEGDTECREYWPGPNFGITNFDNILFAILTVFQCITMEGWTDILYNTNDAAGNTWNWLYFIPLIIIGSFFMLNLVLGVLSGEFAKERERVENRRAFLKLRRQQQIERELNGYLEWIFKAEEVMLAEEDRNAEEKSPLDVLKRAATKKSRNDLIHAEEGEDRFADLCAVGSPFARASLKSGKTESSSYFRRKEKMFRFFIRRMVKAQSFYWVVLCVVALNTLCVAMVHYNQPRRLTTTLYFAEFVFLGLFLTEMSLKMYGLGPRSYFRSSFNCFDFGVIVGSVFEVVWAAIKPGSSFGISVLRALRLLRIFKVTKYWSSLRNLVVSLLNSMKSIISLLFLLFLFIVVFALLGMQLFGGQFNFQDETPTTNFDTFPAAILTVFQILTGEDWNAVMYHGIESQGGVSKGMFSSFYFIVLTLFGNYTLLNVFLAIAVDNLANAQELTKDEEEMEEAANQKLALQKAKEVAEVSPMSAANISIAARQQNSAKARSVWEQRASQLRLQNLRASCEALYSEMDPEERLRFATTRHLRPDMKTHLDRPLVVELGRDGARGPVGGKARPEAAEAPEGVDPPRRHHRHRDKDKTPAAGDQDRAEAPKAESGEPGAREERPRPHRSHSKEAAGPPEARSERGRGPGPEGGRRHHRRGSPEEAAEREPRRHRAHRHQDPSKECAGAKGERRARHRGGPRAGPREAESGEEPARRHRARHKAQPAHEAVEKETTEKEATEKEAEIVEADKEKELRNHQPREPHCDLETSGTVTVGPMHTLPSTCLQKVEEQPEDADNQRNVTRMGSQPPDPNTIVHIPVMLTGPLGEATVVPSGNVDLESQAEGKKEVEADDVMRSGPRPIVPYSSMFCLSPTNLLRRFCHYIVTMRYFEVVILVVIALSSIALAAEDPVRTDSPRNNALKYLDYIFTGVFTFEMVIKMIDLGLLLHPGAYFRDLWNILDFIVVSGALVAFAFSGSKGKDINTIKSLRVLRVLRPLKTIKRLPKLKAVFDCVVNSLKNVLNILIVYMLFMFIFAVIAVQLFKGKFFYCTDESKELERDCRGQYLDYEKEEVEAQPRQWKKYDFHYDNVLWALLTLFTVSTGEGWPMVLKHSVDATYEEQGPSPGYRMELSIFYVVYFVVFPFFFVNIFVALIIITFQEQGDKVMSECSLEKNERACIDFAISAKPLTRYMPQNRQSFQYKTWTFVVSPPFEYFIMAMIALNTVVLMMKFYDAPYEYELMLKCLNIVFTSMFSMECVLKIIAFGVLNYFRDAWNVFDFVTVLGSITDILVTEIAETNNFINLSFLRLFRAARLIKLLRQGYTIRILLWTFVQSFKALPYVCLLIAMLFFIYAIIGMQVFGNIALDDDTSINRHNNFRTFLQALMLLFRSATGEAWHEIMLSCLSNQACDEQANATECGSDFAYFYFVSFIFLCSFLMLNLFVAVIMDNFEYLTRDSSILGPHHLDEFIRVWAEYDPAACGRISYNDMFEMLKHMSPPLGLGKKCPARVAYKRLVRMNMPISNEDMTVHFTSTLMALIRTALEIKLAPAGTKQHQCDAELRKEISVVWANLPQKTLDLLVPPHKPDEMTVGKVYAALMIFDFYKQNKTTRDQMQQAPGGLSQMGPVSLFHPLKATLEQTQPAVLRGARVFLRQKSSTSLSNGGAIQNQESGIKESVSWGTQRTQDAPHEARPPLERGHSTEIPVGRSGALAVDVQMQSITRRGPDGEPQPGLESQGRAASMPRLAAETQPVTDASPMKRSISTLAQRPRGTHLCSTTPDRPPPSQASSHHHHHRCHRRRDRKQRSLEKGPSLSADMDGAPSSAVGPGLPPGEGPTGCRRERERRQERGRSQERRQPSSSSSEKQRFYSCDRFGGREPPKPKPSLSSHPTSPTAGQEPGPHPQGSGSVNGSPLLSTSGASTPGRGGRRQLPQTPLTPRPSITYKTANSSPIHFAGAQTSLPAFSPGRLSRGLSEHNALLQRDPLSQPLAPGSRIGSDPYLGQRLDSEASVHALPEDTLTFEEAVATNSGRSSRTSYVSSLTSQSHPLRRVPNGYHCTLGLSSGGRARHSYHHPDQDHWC
T1 sequence (P54289 25-1103, further chain): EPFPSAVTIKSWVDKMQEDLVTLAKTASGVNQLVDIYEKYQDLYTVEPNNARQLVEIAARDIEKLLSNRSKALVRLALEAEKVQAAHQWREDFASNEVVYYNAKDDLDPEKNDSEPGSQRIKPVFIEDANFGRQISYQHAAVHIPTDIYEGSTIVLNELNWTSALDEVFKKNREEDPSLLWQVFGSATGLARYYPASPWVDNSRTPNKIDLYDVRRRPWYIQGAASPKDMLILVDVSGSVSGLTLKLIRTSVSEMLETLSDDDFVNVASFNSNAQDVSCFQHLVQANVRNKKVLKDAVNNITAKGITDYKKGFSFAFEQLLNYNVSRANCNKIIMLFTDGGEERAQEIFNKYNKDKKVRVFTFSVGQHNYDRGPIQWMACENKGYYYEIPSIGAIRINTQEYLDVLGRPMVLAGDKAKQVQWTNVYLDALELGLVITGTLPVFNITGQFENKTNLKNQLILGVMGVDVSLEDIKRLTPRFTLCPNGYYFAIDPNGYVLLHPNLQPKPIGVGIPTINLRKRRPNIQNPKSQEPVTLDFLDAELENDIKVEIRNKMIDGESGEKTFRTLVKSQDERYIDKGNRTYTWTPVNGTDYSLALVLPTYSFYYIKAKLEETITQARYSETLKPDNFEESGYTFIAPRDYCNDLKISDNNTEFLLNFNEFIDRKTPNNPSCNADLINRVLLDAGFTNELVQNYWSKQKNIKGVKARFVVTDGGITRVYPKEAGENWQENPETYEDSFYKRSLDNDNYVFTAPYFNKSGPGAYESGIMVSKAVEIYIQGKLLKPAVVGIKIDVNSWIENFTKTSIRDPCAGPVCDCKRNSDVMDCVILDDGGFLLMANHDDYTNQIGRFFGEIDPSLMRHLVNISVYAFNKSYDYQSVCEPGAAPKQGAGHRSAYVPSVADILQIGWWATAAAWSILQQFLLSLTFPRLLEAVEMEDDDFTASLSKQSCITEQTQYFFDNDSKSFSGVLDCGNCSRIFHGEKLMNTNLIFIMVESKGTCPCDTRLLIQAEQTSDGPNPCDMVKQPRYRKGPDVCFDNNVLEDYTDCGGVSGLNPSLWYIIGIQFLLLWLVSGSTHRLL
T1 sequence (P54284 whole entry, further chain): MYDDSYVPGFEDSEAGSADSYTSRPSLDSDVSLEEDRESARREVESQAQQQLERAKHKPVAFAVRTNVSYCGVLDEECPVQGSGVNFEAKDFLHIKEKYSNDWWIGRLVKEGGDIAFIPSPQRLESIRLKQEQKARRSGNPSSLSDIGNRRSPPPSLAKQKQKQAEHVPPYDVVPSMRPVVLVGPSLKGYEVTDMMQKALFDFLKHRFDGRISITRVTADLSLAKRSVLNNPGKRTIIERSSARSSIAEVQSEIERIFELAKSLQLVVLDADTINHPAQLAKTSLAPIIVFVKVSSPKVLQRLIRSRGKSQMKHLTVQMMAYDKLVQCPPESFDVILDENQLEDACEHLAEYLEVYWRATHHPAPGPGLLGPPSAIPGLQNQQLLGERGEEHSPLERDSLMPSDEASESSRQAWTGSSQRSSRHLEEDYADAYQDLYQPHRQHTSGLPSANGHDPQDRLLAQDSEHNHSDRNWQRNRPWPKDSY
Method in brief: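 Channel block was read as the baseline-normalized peak Ca²⁺ signal (Fluo-4, 480/535 nm) after a high-KCl depolarizing addition (210 mM KCl buffer). Beforehand, compound sat 15 min at 25 °C on HEK293 cells carrying human CaV2.2, α2δ/β subunits and Kir2.3, in pH 7.4 buffer with 30 mM KCl.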

`Cc1c(-c2ccc(Cl)cc2F)c(C(=O)N2CCOCC2)n(Cc2ccccc2)c1C(F)(F)F` [SC-62, [1-Benzyl-3-(4-chloro-2-fluoro-phenyl)-4-methyl-5-(trifluoromethyl)-1H-pyrrol-2-yl]-morpholin-4-yl-methanone] and `O=C(c1c(-c2ccc(Cl)cc2F)cc(C(F)(F)F)n1Cc1ccccc1)N1CCOCC1` [SC-86, [1-Benzyl-3-(4-chloro-2-fluoro-phenyl)-5-(trifluoromethyl)-1H-pyrrol-2-yl]-morpholin-4-yl-methanone] cannot be ordered by inhibition at 3 µM: over 95% for the first, over 95% for the second.

`Cc1c(-c2ccc(Cl)cc2)c(C(=O)N(C)C2CCS(=O)(=O)C2)n(Cc2ccccc2)c1C(F)(F)F` (stereo not shown) [SC-63, 1-Benzyl-3-(4-chlorophenyl)-N-(1,1-dioxo-thiolan-3-yl)-N,4-dimethyl-5-(trifluoromethyl)-1H-pyrrole-2-carboxylic acid amide] and `CN(C(=O)c1c(-c2ccc(Cl)cc2)cc(C(F)(F)F)n1Cc1ccccc1)C1CCS(=O)(=O)C1` (stereo not shown) [SC-83, 1-Benzyl-3-(4-chlorophenyl)-N-(1,1-dioxo-thiolan-3-yl)-N-methyl-5-(trifluoromethyl)-1H-pyrrole-2-carboxylic acid amide] cannot be ordered by inhibition at 3 µM: over 95% for the first, over 95% for the second.

`Cc1c(-c2ccc(Cl)cc2F)c(C(=O)N(C)CCS(C)(=O)=O)n(Cc2ccccc2)c1C(F)(F)F` [SC-64, 1-Benzyl-3-(4-chloro-2-fluoro-phenyl)-N,4-dimethyl-N-(2-methylsulfonyl-ethyl)-5-(trifluoromethyl)-1H-pyrrole-2-carboxylic acid amide] and `CN(CCS(C)(=O)=O)C(=O)c1c(-c2ccc(Cl)cc2F)cc(C(F)(F)F)n1Cc1ccccc1` [SC-90, 1-Benzyl-3-(4-chloro-2-fluoro-phenyl)-N-methyl-N-(2-methylsulfonyl-ethyl)-5-(trifluoromethyl)-1H-pyrrole-2-carboxylic acid amide] cannot be ordered by inhibition at 3 µM: over 95% for the first, over 95% for the second.

First: Cc1c(-c2ccc(Cl)cc2)c(C(=O)N(C)CC2(O)CC2)n(Cc2ccccc2)c1C(F)(F)F [SC-65, 1-Benzyl-3-(4-chlorophenyl)-N-[(1-hydroxy-cyclopropyl)-methyl]-N,4-dimethyl-5-(trifluoromethyl)-1H-pyrrole-2-carboxylic acid amide]
Second: Cc1c(-c2ccc(Cl)cc2)c(C(=O)N2CC(F)(F)C2)n(Cc2ccccc2)c1C(F)(F)F [SC-93, [1-Benzyl-3-(4-chlorophenyl)-4-methyl-5-(trifluoromethyl)-1H-pyrrol-2-yl]-(3,3-difluoro-azetidin-1-yl)-methanone]
The inhibition at 3 µM of the first is higher: over 95% for the first, 75 to 95% for the second.

First: O=C1CN(C(=O)c2c(-c3ccc(Cl)cc3)cc(C(F)(F)F)n2Cc2ccccc2)CCN1 [SC-66, 4-[1-Benzyl-3-(4-chlorophenyl)-5-(trifluoromethyl)-1H-pyrrole-2-carbonyl]-piperazin-2-one]
Second: O=C1CN(C(=O)c2c(-c3ccc(Cl)cc3)cc(C(F)(F)F)n2Cc2cccc(Cl)c2)CCN1 [SC-81, 4-[3-(4-Chlorophenyl)-1-[(3-chlorophenyl)-methyl]-5-(trifluoromethyl)-1H-pyrrole-2-carbonyl]-piperazin-2-one]
The inhibition at 3 µM of the first is lower: 75 to 95% for the first, over 95% for the second.

First: CN(CCS(C)(=O)=O)C(=O)c1c(-c2ccc(Cl)cc2)cc(C(F)(F)F)n1Cc1ccccc1 [SC-67, 1-Benzyl-3-(4-chlorophenyl)-N-methyl-N-(2-methylsulfonyl-ethyl)-5-(trifluoromethyl)-1H-pyrrole-2-carboxylic acid amide]
Second: CN(CCS(C)(=O)=O)C(=O)c1c(-c2ccc(Cl)cc2)cc(C(F)(F)F)n1Cc1cccc(Cl)c1 [SC-69, 3-(4-Chlorophenyl)-1-[(3-chlorophenyl)-methyl]-N-methyl-N-(2-methylsulfonyl-ethyl)-5-(trifluoromethyl)-1H-pyrrole-2-carboxylic acid amide]
The inhibition at 3 µM of the first is higher: over 95% for the first, 75 to 95% for the second.

`CN(CC(C)(C)O)C(=O)c1c(-c2ccc(Cl)cc2)cc(C(F)(F)F)n1Cc1ccccc1` [SC-68, 1-Benzyl-3-(4-chlorophenyl)-N-(2-hydroxy-2-methyl-propyl)-N-methyl-5-(trifluoromethyl)-1H-pyrrole-2-carboxylic acid amide] and `CN(CC(C)(C)CO)C(=O)c1c(-c2ccc(Cl)cc2)cc(C(F)(F)F)n1Cc1ccccc1` [SC-79, 1-Benzyl-3-(4-chlorophenyl)-N-(3-hydroxy-2,2-dimethyl-propyl)-N-methyl-5-(trifluoromethyl)-1H-pyrrole-2-carboxylic acid amide] cannot be ordered by inhibition at 3 µM: over 95% for the first, over 95% for the second.

First: CN(CC(C)(C)O)C(=O)c1c(-c2ccc(Cl)cc2)cc(C(F)(F)F)n1Cc1cccc(Cl)c1 [SC-70, 3-(4-Chlorophenyl)-1-[(3-chlorophenyl)-methyl]-N-(2-hydroxy-2-methyl-propyl)-N-methyl-5-(trifluoromethyl)-1H-pyrrole-2-carboxylic acid amide]
Second: CN(CC(C)(C)C)C(=O)c1c(-c2ccc(Cl)cc2)cc(C(F)(F)F)n1Cc1cccc(Cl)c1 [SC-71, 3-(4-Chlorophenyl)-1-[(3-chlorophenyl)-methyl]-N-(2,2-dimethyl-propyl)-N-methyl-5-(trifluoromethyl)-1H-pyrrole-2-carboxylic acid amide]
The inhibition at 3 µM of the first is higher: over 95% for the first, 75 to 95% for the second.

`O=C(c1c(-c2ccc(Cl)cc2)cc(C(F)(F)F)n1Cc1ccccc1)N1CC(O)C1` [SC-72, [1-Benzyl-3-(4-chlorophenyl)-5-(trifluoromethyl)-1H-pyrrol-2-yl]-(3-hydroxy-azetidin-1-yl)-methanone] and `CC1(C)CN(C(=O)c2c(-c3ccc(Cl)cc3)cc(C(F)(F)F)n2Cc2ccccc2)CCO1` [SC-75, [1-Benzyl-3-(4-chlorophenyl)-5-(trifluoromethyl)-1H-pyrrol-2-yl]-(2,2-dimethyl-morpholin-4-yl)-methanone] fall in the same range of inhibition at 3 µM: 75 to 95% for the first, 75 to 95% for the second.

First: CN(C(=O)c1c(-c2ccc(Cl)cc2)cc(C(F)(F)F)n1Cc1ccccc1)C1CCOCC1 [SC-73, 1-Benzyl-3-(4-chlorophenyl)-N-methyl-N-tetrahydro-pyran-4-yl-5-(trifluoromethyl)-1H-pyrrole-2-carboxylic acid amide]
Second: CN(CC1CC1)C(=O)c1c(-c2ccc(Cl)cc2)cc(C(F)(F)F)n1Cc1ccccc1 [SC-76, 1-Benzyl-3-(4-chlorophenyl)-N-(cyclopropyl-methyl)-N-methyl-5-(trifluoromethyl)-1H-pyrrole-2-carboxylic acid amide]
The inhibition at 3 µM of the first is higher: over 95% for the first, 75 to 95% for the second.

`O=C(c1c(-c2ccc(Cl)cc2)cc(C(F)(F)F)n1Cc1cccc(Cl)c1)N1CCOCC1` [SC-74, [3-(4-Chlorophenyl)-1-[(3-chlorophenyl)-methyl]-5-(trifluoromethyl)-1H-pyrrol-2-yl]-morpholin-4-yl-methanone] and `CN(CC(C)(C)N1CCOCC1)C(=O)c1c(-c2ccc(Cl)cc2)cc(C(F)(F)F)n1Cc1ccccc1` [SC-85, 1-Benzyl-3-(4-chlorophenyl)-N-methyl-N-(2-methyl-2-morpholin-4-yl-propyl)-5-(trifluoromethyl)-1H-pyrrole-2-carboxylic acid amide] cannot be ordered by inhibition at 3 µM: over 95% for the first, over 95% for the second.

First: CN(C(=O)c1c(-c2ccc(Cl)cc2)cc(C(F)(F)F)n1Cc1ccccc1)C(C)(C)C [SC-77, 1-Benzyl-N-tert-butyl-3-(4-chlorophenyl)-N-methyl-5-(trifluoromethyl)-1H-pyrrole-2-carboxylic acid amide]
Second: CN(CCC(C)(C)C)C(=O)c1c(-c2ccc(Cl)cc2)cc(C(F)(F)F)n1Cc1ccccc1 [SC-84, 1-Benzyl-3-(4-chlorophenyl)-N-(3,3-dimethyl-butyl)-N-methyl-5-(trifluoromethyl)-1H-pyrrole-2-carboxylic acid amide]
The inhibition at 3 µM of the first is higher: 75 to 95% for the first, 40 to 75% for the second.

Compared with `CN(CC1(C)COC1)C(=O)c1c(-c2ccc(Cl)cc2)cc(C(F)(F)F)n1Cc1ccccc1` [SC-78, 1-Benzyl-3-(4-chlorophenyl)-N-methyl-N-[(3-methyl-oxetan-3-yl)-methyl]-5-(trifluoromethyl)-1H-pyrrole-2-carboxylic acid amide], `CN(C)C(=O)c1c(-c2ccc(Cl)cc2)cc(C(F)(F)F)n1Cc1ccccc1` [SC-80, 1-Benzyl-3-(4-chlorophenyl)-N,N-dimethyl-5-(trifluoromethyl)-1H-pyrrole-2-carboxylic acid amide] is lower in inhibition at 3 µM: over 95% for the first, 75 to 95% for the second.

`CC1(C)CN(C(=O)c2c(-c3ccc(Cl)cc3)cc(C(F)(F)F)n2Cc2ccccc2)CCN1` [SC-82, [1-Benzyl-3-(4-chlorophenyl)-5-(trifluoromethyl)-1H-pyrrol-2-yl]-(3,3-dimethyl-piperazin-1-yl)-methanone] and `O=C1CN(C(=O)c2c(-c3ccc(Cl)cc3F)cc(C(F)(F)F)n2Cc2ccccc2)CCN1` [SC-89, 4-[1-Benzyl-3-(4-chloro-2-fluoro-phenyl)-5-(trifluoromethyl)-1H-pyrrole-2-carbonyl]-piperazin-2-one] fall in the same range of inhibition at 3 µM: 75 to 95% for the first, 75 to 95% for the second.

First: CN(CC(C)(C)O)C(=O)c1c(-c2ccc(Cl)cc2F)cc(C(F)(F)F)n1Cc1ccccc1 [SC-87, 1-Benzyl-3-(4-chloro-2-fluoro-phenyl)-N-(2-hydroxy-2-methyl-propyl)-N-methyl-5-(trifluoromethyl)-1H-pyrrole-2-carboxylic acid amide]
Second: CN(CC(C)(C)C)C(=O)c1c(-c2ccc(Cl)cc2F)cc(C(F)(F)F)n1Cc1ccccc1 [SC-88, 1-Benzyl-3-(4-chloro-2-fluoro-phenyl)-N-(2,2-dimethyl-propyl)-N-methyl-5-(trifluoromethyl)-1H-pyrrole-2-carboxylic acid amide]
The inhibition at 3 µM of the first is higher: over 95% for the first, 75 to 95% for the second.

For `CN(CC(C)(C)S(C)(=O)=O)C(=O)c1c(-c2ccc(Cl)cc2)cc(C(F)(F)F)n1Cc1ccccc1` [SC-92, 1-Benzyl-3-(4-chlorophenyl)-N-methyl-N-(2-methyl-2-methylsulfonyl-propyl)-5-(trifluoromethyl)-1H-pyrrole-2-carboxylic acid amide], the inhibition at 3 µM was over 95%.
